16 compounds from patent US20050250819A1 (priority 2004, published 2005) can be followed below.

Structures are written as SMILES. pIC50: −log10 of the molar value.

One test has as its system Type III protein secretion of the chimeric SopE‘-’Bla polypeptide (SPI1 type III protein secretion system). The experiment in a line: Primary assay: Type III protein secretion of the chimeric SopE'-'Bla polypeptide by Salmonella enterica. The format is cell-based. To be noted: read-out: SopE IC50(μM). The essentials:
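Salmonella enterica grown under SPI1-inducing conditions expressed a SopE‘-’Bla fusion, with TEM-1 β-lactamase lacking its signal peptide, with or without test compounds. Nitrocefin added to the cultures was hydrolysed only by the secreted fusion, so the colorimetric signal reports type III secretion, and inhibitors lower it.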
For the compound `O=C(N[C@@H](Cc1ccc(Cl)cc1)C(=O)O)/C(=C\c1cccc(C(F)(F)F)c1)NC(=O)c1ccc(Oc2ccccc2)cc1` [Compound 47, (S)-3-(4-Chlorophenyl)-2-[2-(4-phenoxybenzoylamino)-3-(3-trifluoromethyl-phenyl)acryloylamino]propionic acid], the IC50 came to 12.4 µM.

For a further test, the system named is Type III-dependent secretion of SipB (SPI1 type III protein secretion system). The experiment in a line: Secondary assay: Type III-dependent protein secretion of the SipB polypeptide by S. enterica. It counts as cell-based. Particulars: Salmonella enterica, read-out: SipB IC50(μM). As for the experimental part:
Secondary assay: Type III-dependent protein secretion of the SipB polypeptide by S. enterica. The SipB protein of S. enterica is another effector of the SPI1 type III protein secretion system from S. enterica. In this cell-based procedure, the Type III-dependent secretion of SipB from the bacterial cytoplasm to the extracellular medium was measured through its reactivity with a cognate mouse monoclonal.
Salmonella enterica cells growing either in the presence or in the absence of inhibitors are induced for the production of SipB. Following an established period of growth the cells are sedimented and the amount of SipB present in the supernatant is quantified with a scanning imager following application of immunoblot techniques. Detection may employ an anti-SipB mouse monoclonal antibody (e.g., obtained from Jorge Galan, SUNY at Stony Brook, N.Y.) followed by treatment with commercially available sheep anti-mouse polyclonal antibody conjugated with horseradish peroxidase. Thereafter the membrane is treated with a peroxidase chemiluminescent substrate and exposed to film for an appropriate exposure time. Inhibition may be measured relative to untreated controls.
Regarding `O=C(N[C@H](CO)CSCc1ccccc1)/C(=C\c1ccc(-c2ccccc2)cc1)NC(=O)c1ccc(C(F)(F)F)cc1` [Compound 14], the IC50 came out at 77.3 µM.

Another test concerns Type III-dependent secretion of ExoU by P. aeruginosa PA103. Put plainly: Tertiary assay: Type III-dependent secretion of ExoU by P. aeruginosa PA103. It counts as cell-based. Particulars: Pseudomonas aeruginosa, ExoU secreted into extracellular medium. An excerpt: Tertiary assay: inhibition of Type III protein secretion of effectors from a Pseudomonas aeruginosa system. Type III protein secretion is used by P. aeruginosa to secrete several essential virulence determinants. One effector of the type III protein secretion system of P. aeruginosa PA103 is the virulence determinants ExoU.
The amount of Type III-dependent secretion of ExoU by P. aeruginosa PA103 can be determined in a cell-based assay by quantification of the 73.9 kDa ExoU protein secreted into the extracellular medium. Such quantitation can be achieved by growing strain PA103 in a deferrated medium in the presence of nitrilotriacetic acid (an inducer of Type III protein secretion in P. aeruginosa) and either in the presence or absence of putative inhibitors. After a prolonged growth period, the cells are sedimented and the supernatants concentrated by ammonium sulfate precipitation. The proteins in the resuspended pellets are separated by electrophoresis on SDS-polyacrylamide gels. After staining gels with Colloidal Blue™, the 73.9 kDa ExoU band is quantitated by scanning through an imager. The effects of inhibitors on the intensity of the ExoU band may be measured relative to that of untreated controls.
Compound `O=C(N[C@@H](Cc1ccc(Cl)cc1)C(=O)O)/C(=C\c1cccc(C(F)(F)F)c1)NC(=O)c1ccc(Oc2ccccc2)cc1` [Compound 47, (S)-3-(4-Chlorophenyl)-2-[2-(4-phenoxybenzoylamino)-3-(3-trifluoromethyl-phenyl)acryloylamino]propionic acid] showed a negative logarithm of the IC50 (pIC50) of 4.45. The compound `O=C(N[C@@H](CSCc1ccccc1)C(=O)O)/C(=C\c1cccc(C(F)(F)F)c1)NC(=O)C1CCN(c2nccc(C(F)(F)F)n2)CC1` [Compound 78, (R)-3-Benzylsulfanyl-2-(3-(3-trifluoromethylphenyl)-2-{[1-(4-trifluoromethylpyrimidin-2-yl)piperidine-4-carbonyl]amino}acryloylamino)propionic acid] had a pIC50 of 4.17. Same read-out and setting: the figure for `O=C(N[C@H](COCc1ccccc1)C(=O)O)/C(=C\c1ccc(OC(F)(F)F)cc1)NC(=O)C1CCN(c2nccc(C(F)(F)F)n2)CC1` [Compound 83, (R)-3-Benzyloxy-2-(3-(4-trifluoromethoxyphenyl)-2-{[1-(4-trifluoromethyl-pyrimidin-2-yl)piperidine-4-carbonyl]amino}acryloylamino)propionic acid] is 4.07; for `O=C(N[C@@H](CSCc1ccccc1)C(=O)O)/C(=C\c1ccc(OC(F)(F)F)cc1)NC(=O)C1CCN(c2nccc(C(F)(F)F)n2)CC1` [Compound 84, (R)-3-Benzylsulfanyl-2-(3-(4-trifluoromethoxyphenyl)-2-{[1-(4-trifluoromethyl-pyrimidin-2-yl)piperidine-4-carbonyl]amino}acryloylamino)propionic acid] it is 4.24; for `O=C(NC(Cc1ccc(Cl)cc1)C(=O)O)/C(=C\c1cccc(C(F)(F)F)c1)NC(=O)c1ccc(-c2ccccc2)cc1` (centres unmarked) [Compound 97] it is 4.89.

In the case of `O=C(NC(CCSCc1ccccc1)C(=O)O)/C(=C\c1cccc(C(F)(F)F)c1)NC(=O)c1ccc(-c2ccccc2)cc1` (centres unmarked) [Compound 98], the pIC50 was 4.89. On to `O=C(N[C@@H](CSCc1ccccc1)C(=O)O)/C(=C\c1ccc(Cl)cc1Cl)NC(=O)c1ccc(-c2ccccc2)cc1` [Compound 102], for which the pIC50 is 4.40. The same measure, in the same setting: the figure for `O=C(NC(COCc1ccccc1)C(=O)O)/C(=C\c1ccc(Cl)cc1Cl)NC(=O)c1ccc(-c2ccccc2)cc1` (centres unmarked) [Compound 103] is 4.74; for `O=C(N[C@@H](CSCc1ccccc1)C(=O)O)/C(=C\c1ccc(Cl)c(Cl)c1)NC(=O)c1ccc(-c2ccccc2)cc1` [Compound 105] it is 4.48.

Regarding `O=C(NC(COCc1ccccc1)C(=O)O)/C(=C\c1ccc(Cl)c(Cl)c1)NC(=O)c1ccc(-c2ccccc2)cc1` (centres unmarked) [Compound 106], the pIC50 is 4.70. Take `O=C(N[C@@H](CSCc1ccccc1)C(=O)O)/C(=C\c1ccc(-c2ccccc2)cc1)NC(=O)c1ccc(C(F)(F)F)cc1` [Compound 121]: the pIC50 was 4.60. For the compound `O=C(NC(CCSCc1ccccc1)C(=O)O)/C(=C\c1ccc(-c2ccccc2)cc1)NC(=O)c1ccc(C(F)(F)F)cc1` (centres unmarked) [Compound 122], the pIC50 is 4.60.

Regarding `O=C(NC(COCc1ccccc1)C(=O)O)/C(=C\c1ccc(-c2ccccc2)cc1)NC(=O)c1ccc(C(F)(F)F)cc1` (centres unmarked) [Compound 133], the pIC50 was 4.00. Turning to `O=C(N[C@@H](CSCc1ccccc1)C(=O)O)/C(=C\c1ccc(Cl)c(Cl)c1)NC(=O)c1ccc(C(F)(F)F)cc1` [Compound 140], the pIC50 was 4.32. `O=C(N[C@@H](CSCc1ccccc1)C(=O)O)/C(=C\c1ccc(Cl)cc1Cl)NC(=O)c1ccc(C(F)(F)F)cc1` [Compound 154] had a pIC50 of 4.58.

What is called IC50 is the point on the concentration scale where inhibition reaches its midpoint. A word on the pIC50: it is the negative decadic logarithm of the IC50, by convention in mol/L. Low values mean a large IC50, high ones a small IC50.
